Data on twelve compounds can be found in ChEMBL document CHEMBL1201862, “PubChem BioAssay data set” (2004).

“And” between values parts separate entries of the source, which are not always exact repeats. Equal values may be shown once.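 In this assay, cells in 96-well plates receive the compound at five concentrations for 48 hours. Endpoints are linearly interpolated between the surrounding concentrations. Here, GI50 denotes the concentration required for 50% inhibition of growth.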 The source made the active and inactive calls. Rule as the data show it: active = GI50 up to about 1.1 µM and inactive = higher.

Holding throughout (assay): NCI anticancer screen, dose series, 48 h
In assay [1] the test system is CAKI-1.
Assay [2] has as its system NCI-H460.
Assay [3] relates to LOX IMVI.
Assay [4] relates to HCT-15.
In assay [5] the test system is HOP-62.
Assay [6] has as its system SF-295.
Assay [7] has as its system SN12C.
Assay [8] concerns TK-10.
The test system of assay [9] is OVCAR-8.
Assay [10] has as its system SNB-19.
Assay [11] has as its system NCI-H23.
Assay [12] concerns ACHN.
The subject of assay [13] is HCT-116.
The subject of assay [14] is UACC-257.
The subject of assay [15] is K562.
Assay [16] has as its system OVCAR-3.
In assay [17] the test system is CCRF-CEM.
Assay [18] has as its system MOLT-4.
The test system of assay [19] is RXF 393.
The test system of assay [20] is 786-0.

For `CC1OC1C(=O)P(=O)(O)O` (configuration not stated), the GI50 in [1] was > 100 µM (inactive); in assay [2], > 100 µM (inactive); in assay [3] it was > 100 µM (inactive); in assay [4], over 100 µM; in assay [5], > 100 µM (inactive); in assay [6], > 100 µM (inactive). Further, the GI50 in assay [7], in assay [8], in assay [9], in assay [10], in assay [11] and in assay [12] was > 100 µM (inactive) throughout. The GI50 in assay [13], in assay [14], in assay [15], in assay [16], in assay [17] and in assay [18] was > 100 µM (inactive) in each case.

Take `O=C1OC(c2ccccc2)=N/C1=C\c1ccccc1`: the GI50 was > 100 µM (inactive) in assay [1]; 45.9 µM (inactive) and 43.9 µM (inactive) in [2]; 17.1 µM (inactive) and 23.3 µM (inactive) in assay [3]; 29.1 µM (inactive) and 25.8 µM (inactive) in [5]; 69 µM (inactive) and 68.2 µM (inactive) in assay [6]; 66.4 µM (inactive) in assay [7]. Moreover, the GI50 in assay [8] was 62.7 µM (inactive) and 78.2 µM (inactive); in [9] it was 38.8 µM (inactive) and 32.6 µM (inactive); in [10], 66.7 µM (inactive) and 40.1 µM (inactive); in assay [11], > 100 µM (inactive); in assay [12] it was > 100 µM (inactive); in assay [13] it was > 100 µM (inactive). Also, the GI50 in [14] was 41.4 µM (inactive) and 25.9 µM (inactive); in assay [16], 24 µM (inactive); in [17], 21 µM (inactive) and 24.6 µM (inactive); in assay [18], 28.2 µM (inactive) and 47 µM (inactive).

For `COc1ccc(C(=O)c2c3cc(OC)c(OC)c(OC)c3cc[n+]2C)cc1`, the GI50 in assay [19] was 39.6 µM (inactive); in [2], 31.6 µM (inactive); in assay [5], 28.2 µM (inactive); in assay [7] it was 31.8 µM (inactive); in assay [8] it was 46.5 µM (inactive); in assay [9], 35.7 µM (inactive). Moreover, the GI50 in assay [10] is 31 µM (inactive); in [11], 23.7 µM (inactive); in assay [12], 26.5 µM (inactive); in assay [13], 28 µM (inactive); in assay [15], 20.1 µM (inactive); in assay [20], 18.6 µM (inactive). The GI50 in assay [17] was 20.9 µM (inactive); in assay [18] it was 20.5 µM (inactive).

Take `Nc1ccc2cc(S(=O)(=O)O)cc(O)c2c1/N=N/c1ccc(NC(=O)Nc2ccc(/N=N/c3c(N)ccc4cc(S(=O)(=O)O)cc(O)c34)c(S(=O)(=O)O)c2)cc1S(=O)(=O)O`: the GI50 in assay [19] was > 100 µM (inactive); in assay [2], > 100 µM (inactive); in [3], > 100 µM (inactive); in assay [4] it was over 91.2 µM; in assay [5] it was > 100 µM (inactive); in [6], > 100 µM (inactive). In addition, the GI50 in [7], in assay [9], in assay [11], in assay [13], in assay [14] and in [15] was > 100 µM (inactive) throughout. Further, the GI50 is > 100 µM (inactive) in assay [16], > 69.3 µM (inactive) in [17] and > 100 µM (inactive) in assay [18].

In the case of `Cc1ccccc1NC(=O)CSc1nnc(Cc2ccccc2)o1`, the GI50 in assay [19] was > 100 µM (inactive); in [2] it was > 100 µM (inactive); in assay [3] it was > 100 µM (inactive); in assay [4] it was over 100 µM; in [5] it was > 100 µM (inactive); in [6], > 100 µM (inactive). Also, the GI50 in assay [7], in [8], in [9], in assay [11], in [12] and in [13] was > 100 µM (inactive) each time. In addition, the GI50 in assay [14], in assay [15], in [16], in assay [20], in assay [17] and in [18] was > 100 µM (inactive) throughout.

For `Cn1nc(-c2ccccc2)c(C(=O)/C=C/c2ccccc2)c(N2CCCC2)c1=O`, the GI50 is 6.59 µM (inactive) in assay [19]; 10.3 µM (inactive) in [2]; 15.1 µM (inactive) in assay [3]; 13.5 µM in assay [4]; 11.9 µM (inactive) in [5]; 20.7 µM (inactive) in assay [7]. Besides, the GI50 in assay [8] is 22.5 µM (inactive); in [9] it was 16.9 µM (inactive); in assay [11], 10.4 µM (inactive); in assay [12] it was 12.6 µM (inactive); in [13], 5.94 µM (inactive); in [15] it was 7.14 µM (inactive). For the same compound, the GI50 in [20] is 13.2 µM (inactive); in [17], 7.8 µM (inactive); in assay [18] it was 4.39 µM (inactive).

As to `c1ccc(/N=C(\N2CCCCC2)N(CCN2CCCCC2)c2ccccc2)cc1`, the GI50 is 3.15 µM (inactive) in assay [1]; 0.274 µM (active) in [2]; 0.622 µM (active) in assay [3]; 1.68 µM in assay [4]; 1.43 µM (inactive) in assay [5]; 1.04 µM (active) in [6]. Moreover, the GI50 was 2.11 µM (inactive) in assay [7]; 2.96 µM (inactive) in assay [8]; 2.01 µM (inactive) in [9]; 3.78 µM (inactive) in assay [10]; 0.773 µM (active) in assay [11]; 1.58 µM (inactive) in assay [12]. Besides, the GI50 in assay [13] is 0.0736 µM (active); in assay [14], 1.82 µM (inactive); in assay [15], 0.254 µM (active); in [16] it was 0.401 µM (active); in assay [17] it was 1 µM (active); in assay [18] it was 0.279 µM (active).

`CN(c1ccc(C(=O)c2ccc(N(C)S(C)(=O)=O)cc2)cc1)S(C)(=O)=O`: the GI50 in assay [1] was > 100 µM (inactive); in assay [2], > 100 µM (inactive); in [6], 78.2 µM (inactive); in assay [7] it was > 100 µM (inactive); in assay [8], > 100 µM (inactive); in assay [9], > 100 µM (inactive). In addition, the GI50 in [10] is > 100 µM (inactive); in assay [11] it was 34.5 µM (inactive); in assay [12], 77.8 µM (inactive); in assay [13] it was > 100 µM (inactive); in assay [14], 48.9 µM (inactive); in [15] it was 49.3 µM (inactive). In addition, the GI50 in [20] was > 100 µM (inactive); in assay [17] it was > 100 µM (inactive); in [18], 47 µM (inactive).

Consider `CC(C)N(C(=O)C1(O)c2ccccc2C=Cc2ccccc21)C(C)C`, for which the GI50 was 24.7 µM (inactive) in [1]; 21.1 µM in assay [4]; 19.2 µM (inactive) in assay [5]; 17.8 µM (inactive) in [6]; 16.3 µM (inactive) in [7]; 18 µM (inactive) in [8]. Further, the GI50 is 16.9 µM (inactive) in [9]; 19.9 µM (inactive) in assay [10]; 17.6 µM (inactive) in assay [11]; 16.1 µM (inactive) in assay [12]; 17.5 µM (inactive) in assay [13]; 16.9 µM (inactive) in [16]. Also, the GI50 was 20.6 µM (inactive) in [20] and 23.7 µM (inactive) in assay [18].

Regarding `Clc1ccc(OC2CCO2)cc1Cl` (configuration not stated), the GI50 in assay [1] is 53.1 µM (inactive); in [2], 47.2 µM (inactive); in [4] it was 15.7 µM; in [5], 78.9 µM (inactive); in assay [6] it was > 100 µM (inactive); in assay [7], 88.5 µM (inactive). The GI50 in assay [8] is 87.7 µM (inactive); in [9] it was 96.2 µM (inactive); in assay [10] it was > 100 µM (inactive); in [11], 83.8 µM (inactive); in assay [12], 49.7 µM (inactive); in assay [13] it was 33.8 µM (inactive). Moreover, the GI50 was 40 µM (inactive) in [14]; 40.6 µM (inactive) in assay [15]; 57.8 µM (inactive) in assay [16]; 85.9 µM (inactive) in assay [20]; 48.3 µM (inactive) in assay [17]; 35.3 µM (inactive) in [18].

In the case of `CCCCCCC1NN(C(C)=O)C(CCCCCC)NN1C(C)=O` (configuration not stated), the GI50 in assay [1] was > 100 µM (inactive); in [2], 17.7 µM (inactive); in [3] it was 19.9 µM (inactive); in [4], over 100 µM; in [5], > 100 µM (inactive); in assay [6], > 100 µM (inactive). For the same compound, the GI50 in assay [7], in assay [8], in [9], in [10], in assay [11] and in assay [12] was > 100 µM (inactive) in each case. Moreover, the GI50 in [13] is > 100 µM (inactive); in [14], > 100 µM (inactive); in [15], 32 µM (inactive); in [16], > 100 µM (inactive); in [20], > 100 µM (inactive); in assay [17] it was 42.2 µM (inactive). Further, the GI50 in assay [18] was > 100 µM (inactive).

Regarding `COc1ccc2c(c1)-c1oc3ccccc3c(=O)c1CO2`, the GI50 in [1] is 20.8 µM (inactive); in [3] it was 21.6 µM (inactive); in [4], 24.9 µM; in assay [5], 57.4 µM (inactive); in assay [6], 69 µM (inactive); in [7], 32.7 µM (inactive). Besides, the GI50 is 45.2 µM (inactive) in assay [8]; 39.1 µM (inactive) in assay [9]; 89.5 µM (inactive) in assay [11]; 28.1 µM (inactive) in assay [12]; 28.8 µM (inactive) in assay [13]; 31.8 µM (inactive) in [14]. Besides, the GI50 in assay [15] was 65 µM (inactive); in assay [16] it was 31.3 µM (inactive); in assay [20], 31.7 µM (inactive); in assay [17], 20.5 µM (inactive); in [18] it was 28.1 µM (inactive).
